Test results from US20250032625A1, “HETEROBIFUNCTIONAL MOLECULES AS TEAD INHIBITORS” (Merck Patent GmbH, priority 2021, published 2025).
Like-named read-outs stand apart in the source and are kept apart here.

Tests used:
TEAD1 in SK-HEP1 cells = TEAD1 in SK-HEP1 cells (Homo sapiens (Human), UniProt P28347); assay: TEAD degradation in SK-HEP1 cell line (immunofluorescence); type: cell-based
Procedure: (§1) Degradation of TEAD isoform TEAD1 by exemplary compounds which has been determined at different time points in two different cell lines, SK-HEP1 and NCI-H226: For the assay, SK-HEP1 (ATCC HTB-52) and NCI-H226 (ATCC CRL-5826) cells were treated in duplicates with the test compounds in a 10-point dose, 1:3 dilution steps, with the top concentration starting at 30 uM (final concentration in assay). After either 16 or 24 hour incubation at 37° C., 95% rH, and 5% CO2, the cells were fixed with 4% PFA and TEAD1 levels were probed using immunofluorescence. The primary antibody used was Anti-TEF1 (BD, 610293) and the secondary antibody used was Alexa Fluor® 488 Goat Anti-Mouse IgG (H+L) (Molecular Probes, A-11001). Finally, the cell nuclei were co-stained by Hoechst 33258 (Invitrogen, H-3569) and imaged using a high content imager. The amount of TEAD degradation was determined by quantifying the fluorescence intensity levels of Anti-TEF1 in each individual cell per well. DC50 was calculated using curve fitting software Genedata Screener. Cell media: The SK-HEP1 cells were cultured in the following media: MEM, +10% FCS, +1× GlutaMAX, +100 μM NEAA, +10 mM HEPES, +0.5% Pen/Strep. The NCI-H226 cells were cultured in the following media: RPMI 1640, +10% FBS, +1× GlutaMAX, +10 mM HEPES, +0.5% Pen/Strep.

TEAD1 in NCI-H226 cells = TEAD1 in NCI-H226 cells (Homo sapiens (Human), UniProt P28347); assay: TEAD degradation in NCI-H226 cell line (immunofluorescence); type: cell-based
Procedure: as §1

[1] = 24 hours, ranges, read-out: DC50 SK-HEP1
[2] = 24 hours, ranges, read-out: DC50 NCI-H226
[3] = 24 h incubation, read-out: DC50 SK-HEP1 24 h
[4] = 24 h incubation, read-out: DC50 NCI-H226 24 h

Sequence of TEAD1 in NCI-H226 cells (P28347 whole entry): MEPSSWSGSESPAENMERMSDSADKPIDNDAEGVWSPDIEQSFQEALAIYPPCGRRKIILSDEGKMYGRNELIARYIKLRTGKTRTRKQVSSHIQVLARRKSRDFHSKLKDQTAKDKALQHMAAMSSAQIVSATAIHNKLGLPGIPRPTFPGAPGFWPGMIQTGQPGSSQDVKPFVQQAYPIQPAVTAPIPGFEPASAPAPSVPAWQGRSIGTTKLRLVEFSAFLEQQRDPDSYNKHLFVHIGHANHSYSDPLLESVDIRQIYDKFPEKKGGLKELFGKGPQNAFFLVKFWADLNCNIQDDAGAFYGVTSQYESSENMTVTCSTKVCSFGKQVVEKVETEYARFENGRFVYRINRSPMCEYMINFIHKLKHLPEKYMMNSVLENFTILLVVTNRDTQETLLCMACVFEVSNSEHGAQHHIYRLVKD
Sequence of TEAD1 in SK-HEP1 cells (P28347 whole entry, canonical isoform): as the sequence (P28347 whole entry) above

| SMILES | DC50 (TEAD1 in SK-HEP1 cells; [1]) | DC50 (TEAD1 in NCI-H226 cells; [2]) | DC50 (TEAD1 in SK-HEP1 cells; 16 h incubation, read-out: DC50 SK-HEP1 16 h) | DC50 (TEAD1 in SK-HEP1 cells; [3]) | DC50 (TEAD1 in NCI-H226 cells; 16 h incubation, read-out: DC50 NCI-H226 16 h) | DC50 (TEAD1 in NCI-H226 cells; [4]) |
| --- | --- | --- | --- | --- | --- | --- |
| Cn1cc2c3cc(C(=O)NCCOCCOCCOCCOCCNc4ccc5c(c4)C(=O)N(C4CCC(=O)NC4=O)C5=O)ccc3n(-c3ccc(C(F)(F)F)cc3)c2n1 (stereo not shown) [Compound 42, N-(14-{[2-(2,6-dioxopiperidin-3-yl)-1,3-dioxo-2,3-dihydro-1H-isoindol-5-yl]amino}-3,6,9,12-tetraoxatetradecan-1-yl)-2-methyl-8-[4-(trifluoro-methyl)phenyl]-2H,8H-pyrazolo[3,4-b]indole-5-carboxamide] | < 100 nM | 100 to 1000 nM | – | – | – | – |
| Cn1cc2c3cc(C(=O)NCCOCCOCCOCCOCCNc4cccc5c4CN(C4CCC(=O)NC4=O)C5=O)ccc3n(-c3ccc(C(F)(F)F)cc3)c2n1 (stereo not shown) [Compound 43, N-(14-{[2-(2,6-dioxopiperidin-3-yl)-1-oxo-2,3-dihydro-1H-isoindol-4-yl]amino}-3,6,9,12-tetraoxatetradecan-1-yl)-2-methyl-8-[4-(trifluoromethyl)phenyl]-2H,8H-pyrazolo[3,4-b]indole-5-carboxamide] | 9000 to 30000 nM | 100 to 1000 nM | – | – | – | – |
| Cc1ncsc1-c1ccc([C@H](C)NC(=O)[C@@H]2C[C@@H](O)CN2C(=O)[C@@H](NC(=O)CCCCCC(=O)NCCOCCOCCNC(=O)c2ccc3c(c2)c2cn(C)nc2n3-c2ccc(C(F)(F)F)cc2)C(C)(C)C)cc1 [Compound 24, N′-[(2S)-1-[(2S,4R)-4-hydroxy-2-{[(1S)-1-[4-(4-methyl-1,3-thiazol-5-yl)phenyl]ethyl]carbamoyl}pyrrolidin-1-yl]-3,3-dimethyl-1-oxobutan-2-yl]-N-(2-{2-[2-({2-methyl-8-[4-(trifluoromethyl)phenyl]-2H,8H-pyrazolo[3,4-b]indol-5-yl}formamido)ethoxy]ethoxy}ethyl) heptanediamide] | 100 to 1000 nM | 100 to 1000 nM | 700 nM | 700 nM | 1000 nM | 1000 nM |
| Cn1cc2c3cc(C(=O)NCCOCCOCCOCCOCCNc4cccc5c4C(=O)N(C4CCC(=O)NC4=O)C5=O)ccc3n(-c3ccc(C(F)(F)F)cc3)c2n1 (stereo not shown) [Compound 28, N-(14-{[2-(2,6-dioxopiperidin-3-yl)-1,3-dioxo-2,3-dihydro-1H-isoindol-4-yl]amino}-3,6,9,12-tetraoxatetradecan-1-yl)-2-methyl-8-[4-(trifluoromethyl)phenyl]-2H,8H-pyrazolo[3,4-b]indole-5-carboxamide] | < 100 nM | < 100 nM | – | 70 nM | – | 90 nM |
| Cn1cc2c3cc(C(=O)NCCOCCOCCOCCOCCNC(=O)[C@]45CCC(C)(C)C[C@H]4[C@H]4C(=O)C=C6[C@@]7(C)C=C(C#N)C(=O)C(C)(C)[C@@H]7CC[C@@]6(C)[C@]4(C)CC5)ccc3n(-c3ccc(C(F)(F)F)cc3)c2n1 [Compound 33, (4aS,6aR,6bS,8aR,12aS, 14aR, 14bS)-11-cyano-2,2,6a,6b,9,9,12a-heptamethyl-N-[14-({2-methyl-8-[4-(trifluoromethyl)phenyl]-2H,8H-pyrazolo[3,4-b]indol-5-yl}formamido)-3,6,9,12-tetraoxatetradecan-1-yl]-10,14-dioxo-1,2,3,4,4a,5,6,6a,6b,7,8,8a,9,10,12a,14,14a,14b-octadecahydropicene-4a-carboxamide] | 100 to 1000 nM | 100 to 1000 nM | – | 650 nM | – | 600 nM |
| Cn1cc2c3cc(C(=O)NCCOCCOCCOCCNc4cccc5c4C(=O)N(C4CCC(=O)NC4=O)C5=O)ccc3n(-c3ccc(C(F)(F)F)cc3)c2n1 (stereo not shown) [Compound 50, N-(2-{2-[2-(2-{[2-(2,6-dioxopiperidin-3-yl)-1,3-dioxo-2,3-dihydro-1H-iso-indol-4-yl]amino}ethoxy)ethoxy]ethoxy}ethyl)-2-methyl-8-[4-(trifluoro-methyl)phenyl]-2H,8H-pyrazolo[3,4-b]indole-5-carboxamide] | 9000 to 30000 nM | < 100 nM | – | – | – | – |
| Cn1nc2c3cc(C(=O)NCCOCCOCCOCCOCCNc4cccc5c4C(=O)N(C4CCC(=O)NC4=O)C5=O)ccc3n([C@H]3CC[C@H](C(F)(F)F)CC3)c2n1 (stereo partly shown) [Compound 95, N-(14-{[2-(2,6-dioxopiperidin-3-yl)-1,3-dioxo-2,3-dihydro-1H-isoindol-4-yl]amino}-3,6,9,12-tetraoxatetradecan-1-yl)-2-methyl-4-[(1r,4r)-4-(trifluoromethyl)cyclohexyl]-2H,4H-[1,2,3]triazolo[4,5-b]indole-7-carboxamide] | 100 to 1000 nM | 100 to 1000 nM | – | – | – | – |
| Cc1ncsc1-c1ccc([C@H](C)NC(=O)[C@@H]2C[C@@H](O)CN2C(=O)[C@@H](NC(=O)CCCCCc2cn(CCCCOCCNC(=O)c3ccc4c(c3)c3cn(C)nc3n4-c3ccc(C(F)(F)F)cc3)nn2)C(C)(C)C)cc1 [Compound 82, (2S,4R)-1-[(2S)-3,3-dimethyl-2-[6-(1 {4-[2-({2-methyl-8-[4-(trifluoro-methyl)phenyl]-2H,8H-pyrazolo[3,4-b]indol-5-yl}formamido)ethoxy]butyl}-1H-1,2,3-triazol-4-yl)hexanamido]butanoyl]-4-hydroxy-N-[(1S)-1-[4-(4-methyl-1,3-thiazol-5-yl)phenyl]ethyl]pyrrolidine-2-carboxamide] | 100 to 1000 nM | 100 to 1000 nM | – | – | – | – |
| Cc1ncsc1-c1ccc(CNC(=O)[C@@H]2C[C@@H](O)CN2C(=O)[C@@H](NC(=O)COCCOCCOCCOCCOCCOCCNC(=O)c2ccc3c(c2)c2cn(C)nc2n3-c2ccc(C(F)(F)F)cc2)C(C)(C)C)cc1 [Compound 32, (2S,4R)-1-[(2S)-3,3-dimethyl-2-[20-({2-methyl-8-[4-(trifluoromethyl)phenyl]-2H,8H-pyrazolo[3,4-b]indol-5-yl}formamido)-3,6,9,12,15,18-hexaoxaicosanamido]butanoyl]-4-hydroxy-N-{[4-(4-methyl-1,3-thiazol-5-yl)phenyl]methyl}pyrrolidine-2-carboxamide] | 1000 to 3000 nM | 1000 to 3000 nM | – | 1100 nM | – | – |
| Cn1cc2c3cc(C(=O)NCCOCCOCCOCCOCCNc4cccc5c4C(=O)N(C4CCC(=O)NC4=O)C5=O)ccc3n(CC3CCC(C(F)(F)F)CC3)c2n1 (stereo not shown) [Compound 99, N-(14-{[2-(2,6-dioxopiperidin-3-yl)-1,3-dioxo-2,3-dihydro-1H-isoindol-4-yl]amino}-3,6,9,12-tetraoxatetradecan-1-yl)-2-methyl-8-{[4-(trifluoromethyl)cyclohexyl]methyl}-2H,8H-pyrazolo[3,4-b]indole-5-carboxamide] | < 100 nM | 100 to 1000 nM | – | – | – | – |
| Cc1ncsc1-c1ccc(CNC(=O)[C@@H]2C[C@@H](O)CN2C(=O)[C@@H](NC(=O)CCCCCCOCCOCCOCCNC(=O)c2ccc3c(c2)c2cn(C)nc2n3-c2ccc(C(F)(F)F)cc2)C(C)(C)C)cc1 [Compound 60, (2S,4R)-1-[(2S)-3,3-dimethyl-2-[7-(2-{2-[2-({2-methyl-8-[4-(trifluoro-methyl)phenyl]-2H,8H-pyrazolo[3,4-b]indol-5-yl}formamido)ethoxy]-ethoxy}ethoxy)heptanamido]butanoyl]-4-hydroxy-N-{[4-(4-methyl-1,3-thiazol-5-yl)phenyl]methyl}pyrrolidine-2-carboxamide] | 100 to 1000 nM | 100 to 1000 nM | – | – | – | – |
